Results: patent US10610520B2, “Heterocyclic compound” (Takeda Pharmaceutical Company Limited, priority 2016, dated 2020)

Each compound was assayed against T1, His-hMAGL (recombinant polyhistidine tagged human MAGL protein) (Homo sapiens, UniProt Q99685) (assay: Measurement of MAGL inhibitory activity (arachidonic acid production from 2-arachidonylglycerol, RapidFire-mass spectrometry)). Details: MAGL inhibitory rate, test compound 10 μM, 60 min preincubation, 2-arachidonylglycerol substrate.
T1 construct: made in house; host or cells: E. coli BL21(DE3)
T1 sequence (Q99685 1-303): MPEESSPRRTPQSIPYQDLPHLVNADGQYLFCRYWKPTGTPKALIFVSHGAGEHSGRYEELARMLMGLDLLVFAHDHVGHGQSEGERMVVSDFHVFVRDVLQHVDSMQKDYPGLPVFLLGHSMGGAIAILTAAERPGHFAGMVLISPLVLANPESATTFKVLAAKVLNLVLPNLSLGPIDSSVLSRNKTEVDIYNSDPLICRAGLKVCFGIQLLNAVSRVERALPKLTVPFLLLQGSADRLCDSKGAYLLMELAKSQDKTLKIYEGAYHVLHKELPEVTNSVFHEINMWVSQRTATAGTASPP
Format: biochemical
How it was run: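 Arachidonic acid formed was quantified by online solid-phase extraction and triple-quadrupole MS in negative SRM mode against a d8 internal standard. Reaction: recombinant His-hMAGL (7.5 ng/mL, pH 7.5 Tris buffer with Triton X-100 and BSA) plus 2-AG (5 μL of 150 μM stock) for 10 min at room temperature, quenched with 2% formic acid. Percent inhibition corrected for enzyme-free background.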

inhibition at 10 µM [%]	SMILES
101	Cc1cc(OC(F)(F)F)cc2sc(C(=O)N3CCC4(COC(=O)N4)C3)c(Cl)c12 (centres unmarked) [Example 331, 7-((3-chloro-4-methyl-6-(trifluoromethoxy)-1-benzothiophen-2-yl)carbonyl)-3-oxa-1,7-diazaspiro[4.4]nonan-2-one]
100	O=C1NC2(CCN(C(=O)c3sc4cc(F)cc(Cl)c4c3Cl)C2)CO1 (centres unmarked) [Example 332, 7-((3,4-dichloro-6-fluoro-1-benzothiophen-2-yl)carbonyl)-3-oxa-1,7-diazaspiro[4.4]nonan-2-one]
99	O=C1NC2(CCN(C(=O)c3sc4c(F)c(C(F)(F)F)ccc4c3C(F)F)C2)CO1 (centres unmarked) [Example 333, 7-((3-(difluoromethyl)-7-fluoro-6-(trifluoromethyl)-1-benzothiophen-2-yl)carbonyl)-3-oxa-1,7-diazaspiro[4.4]nonan-2-one]
100	O=C1NC2(CCN(C(=O)c3sc4cc(C(F)(F)F)cc(F)c4c3Cl)C2)CO1 (centres unmarked) [Example 334, 7-((3-chloro-4-fluoro-6-(trifluoromethyl)-1-benzothiophen-2-yl)carbonyl)-3-oxa-1,7-diazaspiro[4.4]nonan-2-one]
100	O=C1NC2(CO1)CN(C(=O)c1ccc(-c3cccc(C4(C(F)(F)F)CC4)c3)c(F)c1)C2 [Example 335, 2-((2-fluoro-3′-(1-(trifluoromethyl)cyclopropyl)biphenyl-4-yl)carbonyl)-7-oxa-2,5-diazaspiro[3.4]octan-6-one]
100	O=C1NC2(CCN(C(=O)c3sc4c(F)c(OC(F)(F)F)cc(F)c4c3Cl)C2)CO1 (centres unmarked) [Example 336, 7-((3-chloro-4,7-difluoro-6-(trifluoromethoxy)-1-benzothiophen-2-yl)carbonyl)-3-oxa-1,7-diazaspiro[4.4]nonan-2-one]
100	Cc1c(C(F)(F)F)ccc2c(Cl)c(C(=O)N3CCC4(COC(=O)N4)C3)sc12 (centres unmarked) [Example 337, 7-((3-chloro-7-methyl-6-(trifluoromethyl)-1-benzothiophen-2-yl)carbonyl)-3-oxa-1,7-diazaspiro[4.4]nonan-2-one]
100	O=C1NC2(CCN(C(=O)c3sc4c(F)c(OC(F)(F)F)ccc4c3Cl)C2)CO1 (centres unmarked) [Example 338, 7-((3-chloro-7-fluoro-6-(trifluoromethoxy)-1-benzothiophen-2-yl)carbonyl)-3-oxa-1,7-diazaspiro[4.4]nonan-2-one]
100	O=C1NC2(CCN(C(=O)c3sc4cc(OC(F)(F)F)c(F)cc4c3Cl)C2)CO1 (centres unmarked) [Example 339, 7-((3-chloro-5-fluoro-6-(trifluoromethoxy)-1-benzothiophen-2-yl)carbonyl)-3-oxa-1,7-diazaspiro[4.4]nonan-2-one]
99	O=C1NC2(CCN(C(=O)c3sc4c(F)c(F)cc(Cl)c4c3Cl)C2)CO1 (centres unmarked) [Example 340, 7-((3,4-dichloro-6,7-difluoro-1-benzothiophen-2-yl)carbonyl)-3-oxa-1,7-diazaspiro[4.4]nonan-2-one]
100	Cc1cc(C(F)(F)F)cc2sc(C(=O)N3CCC4(COC(=O)N4)C3)c(Cl)c12 (centres unmarked) [Example 341, 7-((3-chloro-4-methyl-6-(trifluoromethyl)-1-benzothiophen-2-yl)carbonyl)-3-oxa-1,7-diazaspiro[4.4]nonan-2-one]
100	O=C1NC2(CCN(C(=O)c3sc4c(F)c(C(F)(F)F)ccc4c3Cl)C2)CO1 (centres unmarked) [Example 342, 7-((3-chloro-7-fluoro-6-(trifluoromethyl)-1-benzothiophen-2-yl)carbonyl)-3-oxa-1,7-diazaspiro[4.4]nonan-2-one]
100	O=C1NC2(CCN(C(=O)c3sc4cc(C(F)(F)F)c(F)cc4c3Cl)C2)CO1 (centres unmarked) [Example 343, 7-((3-chloro-5-fluoro-6-(trifluoromethyl)-1-benzothiophen-2-yl)carbonyl)-3-oxa-1,7-diazaspiro[4.4]nonan-2-one]
99	O=C1NC2(CO1)CN(C(=O)c1ccc(-c3cccc(C4(C(F)(F)F)CC4)c3)cc1)C2 [Example 344, 2-((3′-(1-(trifluoromethyl)cyclopropyl)biphenyl-4-yl)carbonyl)-7-oxa-2,5-diazaspiro[3.4]octan-6-one]
100	O=C1NC2(CO1)CN(C(=O)c1sc3cc(-c4c(F)cccc4F)ccc3c1Cl)C2 [Example 345, 2-((3-chloro-6-(2,6-difluorophenyl)-1-benzothiophen-2-yl)carbonyl)-7-oxa-2,5-diazaspiro[3.4]octan-6-one]
100	O=C1NC2(CO1)CN(C(=O)c1sc3cc(-c4ccccc4F)ccc3c1-c1ccccc1F)C2 [Example 346, 2-((3,6-bis(2-fluorophenyl)-1-benzothiophen-2-yl)carbonyl)-7-oxa-2,5-diazaspiro[3.4]octan-6-one]

inhibition at 10 µM [%]	SMILES
100	Cc1c(C(=O)N2CC3(COC(=O)N3)C2)sc2c(F)c(OC(F)(F)F)ccc12 [Example 347, 2-((7-fluoro-3-methyl-6-(trifluoromethoxy)-1-benzothiophen-2-yl)carbonyl)-7-oxa-2,5-diazaspiro[3.4]octan-6-one]
100	O=C1NC2(CO1)CN(C(=O)[C@H]1C[C@H](OCc3ccc(Cl)cc3Cl)C1)C2 [Example 348, 2-((trans-3-((2,4-dichlorobenzyl)oxy)cyclobutyl)carbonyl)-7-oxa-2,5-diazaspiro[3.4]octan-6-one]
100	O=C1NC2(CO1)CN(C(=O)[C@H]1C[C@@H](OCc3ccc(Cl)cc3Cl)C1)C2 [Example 349, 2-((cis-3-((2,4-dichlorobenzyl)oxy)cyclobutyl)carbonyl)-7-oxa-2,5-diazaspiro[3.4]octan-6-one]
100	O=C1NC2(CO1)CN(C(=O)[C@H]1C[C@H](OCc3ccc(C(F)(F)F)cc3Cl)C1)C2 [Example 350, 2-((trans-3-((2-chloro-4-(trifluoromethyl)benzyl)oxy)cyclobutyl)carbonyl)-7-oxa-2,5-diazaspiro[3.4]octan-6-one]
100	Cc1c(C(=O)N2CC3(COC(=O)N3)C2)sc2cc(-c3c(F)cccc3F)ccc12 [Example 351, 2-((6-(2,6-difluorophenyl)-3-methyl-1-benzothiophen-2-yl)carbonyl)-7-oxa-2,5-diazaspiro[3.4]octan-6-one]
100	O=C1NC2(CO1)CN(C(=O)[C@H]1C[C@@H](OCc3ccc(C(F)(F)F)cc3Cl)C1)C2 [Example 352, 2-((cis-3-((2-chloro-4-(trifluoromethyl)benzyl)oxy)cyclobutyl)carbonyl)-7-oxa-2,5-diazaspiro[3.4]octan-6-one]
100	O=C1NC2(CO1)CN(C(=O)[C@H]1C[C@@H](OCc3ccc(Cl)c(Cl)c3)C1)C2 [Example 353, 2-((cis-3-((3,4-dichlorobenzyl)oxy)cyclobutyl)carbonyl)-7-oxa-2,5-diazaspiro[3.4]octan-6-one]
100	O=C1NC2(CO1)CN(C(=O)[C@H]1C[C@H](OCc3ccc(C(F)(F)F)cc3F)C1)C2 [Example 354, 2-((trans-3-((2-fluoro-4-(trifluoromethyl)benzyl)oxy)cyclobutyl)carbonyl)-7-oxa-2,5-diazaspiro[3.4]octan-6-one]
100	Cc1ccc(CO[C@H]2C[C@@H](C(=O)N3CC4(COC(=O)N4)C3)C2)cc1Cl [Example 356, 2-((cis-3-((3-chloro-4-methylbenzyl)oxy)cyclobutyl)carbonyl)-7-oxa-2,5-diazaspiro[3.4]octan-6-one]
100	Cc1cc(CO[C@H]2C[C@@H](C(=O)N3CC4(COC(=O)N4)C3)C2)ccc1Cl [Example 357, 2-((cis-3-((4-chloro-3-methylbenzyl)oxy)cyclobutyl)carbonyl)-7-oxa-2,5-diazaspiro[3.4]octan-6-one]
100	Cc1cc(CO[C@H]2C[C@H](C(=O)N3CC4(COC(=O)N4)C3)C2)ccc1Cl [Example 358, 2-((trans-3-((4-chloro-3-methylbenzyl)oxy)cyclobutyl)carbonyl)-7-oxa-2,5-diazaspiro[3.4]octan-6-one]
99	O=C1NC2(CO1)CN(C(=O)[C@H]1C[C@@H](OCc3ccc(C(F)(F)F)c(Cl)c3)C1)C2 [Example 359, 2-((cis-3-((3-chloro-4-(trifluoromethyl)benzyl)oxy)cyclobutyl)carbonyl)-7-oxa-2,5-diazaspiro[3.4]octan-6-one]
100	O=C1NC2(CO1)CN(C(=O)c1sc3c(F)c(OC(F)(F)F)ccc3c1C(F)F)C2 [Example 360, 2-((3-(difluoromethyl)-7-fluoro-6-(trifluoromethoxy)-1-benzothiophen-2-yl)carbonyl)-7-oxa-2,5-diazaspiro[3.4]octan-6-one]
99	O=C1NC2(CO1)CN(C(=O)c1sc3cc(F)ccc3c1Cl)C2 [Example 361, 2-((3-chloro-6-fluoro-1-benzothiophen-2-yl)carbonyl)-7-oxa-2,5-diazaspiro[3.4]octan-6-one]
100	O=C1NC2(CO1)CN(C(=O)c1sc3cc(F)cc(F)c3c1Cl)C2 [Example 362, 2-((3-chloro-4,6-difluoro-1-benzothiophen-2-yl)carbonyl)-7-oxa-2,5-diazaspiro[3.4]octan-6-one]

Same assay, conditions: MAGL inhibitory rate, test compound 10 μM, 60 min preincubation, 2-arachidonylglycerol substrate; 10 µM

% inhibition (10 μM) [%]	SMILES
96	Cc1c(OC(F)(F)F)ccc2c(Cl)c(C(=O)N3CCC4(COC(=O)N4)C3)sc12 (centres unmarked) [Example 330, 7-((3-chloro-7-methyl-6-(trifluoromethoxy)-1-benzothiophen-2-yl)carbonyl)-3-oxa-1,7-diazaspiro[4.4]nonan-2-one]
